US5059438A, “Compositions and methods for inhibiting browning in foods using resorcinol derivatives” (Enzytech, Inc., priority 1990, dated 1991)
Blank lines part the entries; values can stand above or below the molecule they belong to.

Assays:
[1] = tested on: PPO (mushroom); test: Inhibition of PPO by various resorcinol derivatives (linear spectrophotometric assay); assay type: biochemical; conditions: 0.133 mM L-DOPA, pH 6.5, 25° C., 475 nm, read-out: I50 (apparent inhibition constant)
Description: In order to determine the effect of various resorcinol compounds on the inhibition of PPO (mushroom), a linear spectrophotmetric assay system similar to that described in Example 1 was used. The assay mixture consisted of:
5 mM sodium phosphate, pH 6.5;
0.133 mM L-dihydroxyphenylalanine (L-DOPA); PPO (mushroom); and
+/- varied concentrations of the compound to be tested
The rate of the reaction was monitored by measuring the change in absorbance per minute at 475 nm at 25° C.
I50 represents the concentration of inhibitor necessary to obtain fifty (50%) percent inhibition of the enzyme.

[2] = tested on: McIntosh apples, browning; test: Inhibition of browning in apples by Formula V and YM5 eluate; conditions: lactose 9.0%, 1,4-diaminobutane 5 mM
Description: Two fresh and unbruised whole McIntosh apples, held at ambient temperature,were sliced with a stainless steel paring knife into quarters, cored, then cut into 1/4-inch slices. A volume of 0.8 mL of each of the treatment solutions listed in Table 5 at ambient temperature was applied onto the top exposed surface of freshly cut white slices, triplicate samples per treatment. […] Following application, the slices stood at ambient temperature, exposed to air and light, for periodic visual observation of relative rate and extent of browning, from 15 minutes to 4 hours.

[3] = tested on: pink shrimp melanosis; test: Effect of 4-hexylresorcinol, Formula VI and Formula IV compounds on development of shrimp melanosis; parameters: species or system Penaeus duorarum
Description: In one embodiment of the present invention, pink shrimp were treated with an aqueous solution of the compound of Formula II. Formula II was used at concentrations ranging from 0.0001 to 0.005%, and compared to shrimp treated with sodium bisulfite and sea water. The sea water treated shrimp developed melanosis spots within 1-2 days. […] A concentration of up to about 0.1% of Formula II can be used for inhibiting browning.
Harvests were arranged such that fresh, heads-on pink shrimp were obtained within less than 12 hours post-harvest at the dock. All shrimp were routinely washed on-board and temporarily stored in ice. The basic procedure was to rinse 400-600 grams of shrimp in 2.5 liters of variable dip compositions and concentrations for 1 minute then drain and package in plastic bags to be stored in ice. The bags were considered necessary to eliminate the variable influence of melting ice. Iced containers with packaged shrimp were stored in 35° F. (1.7° C.) refrigeration with reicing every other day.
Development of melanosis was scored and photographed routinely during 2 weeks of storage. The bags of shrimp had been numbered such that the investigator could not distinguish amongst the various treatments. One experienced investigator did all scoring relative to the aforementioned scale (Table 2). The scale was accompanied by pre-developed color prints depicting common examples of the advancing stages for melanosis. The intent was to screen for obvious differences between treatments, thus selecting the best treatments for subsequent tests with statistical evaluations.
Pink shrimp were treated and evaluated as described in Example 8 except that the compound of Formula II (4-hexylresorcinol, Sigma Chemical Co.) was substituted for the Formula V compound. Pink shrimp were dipped into solutions of 0.0001-0.005% of the Formula II compound and stored as described above.
Pink shrimp were treated and evaluated as described in Example 8 except that the compound of Formula VI (see Example 6) was substituted for the Formula V compound. Pink shrimp were dipped into solutions of 0.001-0.025%of the Formula VI compound and stored as described above.
Pink shrimp were treated and evaluated as described in Example 8 except that the compound of Formula IV (2,4-dihydroxyphenylpropionic acid) was substituted for the Formula V compound. Pink shrimp were dipped into solutions of 0.001-0.1% the Formula IV compound and stored as described above.

[4] = tested on: PPO in peaches; conditions: Wong et al. 1971; cited from earlier work
[5] = tested on: mushroom PPO (catecholase); conditions: Kuttner and Wagreich 1952; cited from earlier work
[6] = tested on: fresh pink shrimp (Penaeus duorarum) melanosis; test: Effect of Formula V compound on fresh pink shrimp melanosis
Description: Pink shrimp (Penaeus duorarum) were treated and evaluated as described in Example 8 except that the experiment was carried out on a shrimp boat with freshly caught shrimp. The shrimp were not frozen prior to treatment with various concentrations of the compound of Formula V. All solutions were prepared in sea water.
Fresh pink shrimp were treated and evaluated as described in Example 12. The shrimp treated with 0.025% of the compound of Formula V were stored directly or following a sea water rinse, post-treatment.
Fresh pink shrimp were treated and evaluated as described in Example 12. The shrimp were dipped in a 0.01% solution of the compound of Formula V made up in either sea or fresh water.
Fresh pink shrimp were treated and evaluated as described in Example 12. In this example, different one pound batches of shrimp were dipped into the same one liter solution of 0.01% of the Formula V compound for one minute each. A total of eight dips were performed.

IC50 [1]: 0.8 µM
SMILES: CCc1ccc(O)cc1O [4-Ethylresorcinol]

IC50 [1]: 750 µM
SMILES: CCCCCC(=O)c1ccc(O)cc1O [4-Hexanoylresorcinol]

SMILES: NCCCCN [1,4-diaminobutane]
prevention of browning of apples, conclusion [2]: did not prevent browning

IC50 [1]: 0.3 µM
SMILES: CCCCCCCCCCCCc1ccc(O)cc1O [4-Dodecylresorcinol]

SMILES: O=C(O)CCc1ccc(O)cc1O [Formula IV, 2,4-dihydroxyphenylpropionic acid]
lowest concentration inhibiting formation of shrimp melanosis (inhibitor at concentrations as low as) ([3]; FIG. 12, tested 0.001-0.1%): 0.05%

SMILES: Cc1cc(O)cc(O)c1 [orcinol]
reaction with 4-methyl-o-quinone formed by PPO in peaches [4]: react with 4-methyl-o-quinone
substrate for PPO [4]: not substrates for PPO

IC50 [1]: 5 µM
SMILES: O=C(CCc1ccc(O)cc1O)NCCCCNCCCNC(=O)CCc1ccc(O)cc1O [Formula VII, bis-2,4-dihydroxyphenylpropionylspermidine]

IC50 [1]: 150 µM
SMILES: O=C(O)c1ccc(O)cc1O [4-Carboxyresorcinol, 2,4-Dihydroxybenzoic Acid]

SMILES: O=C(O)c1ccccc1 [benzoic acid]
inhibition of mushroom PPO (catecholase) [5]: inhibited

SMILES: NCCCCNC(=O)CCc1ccc(O)cc1O [Formula V, 2,4-dihydroxyphenylpropionyldiaminobutane]
effect of fresh or sea water as solvent on inhibition of shrimp melanosis (FIG. 8) ([6]; 0.01%): no significant effect
effect of post-treatment sea water rinse on inhibition of shrimp melanosis (FIG. 7) ([6]; 0.025%): no significant effect

IC50 [1]: 5 µM
SMILES: O=C(CCc1ccc(O)cc1O)NCCCCNC(=O)CCc1ccc(O)cc1O [Formula VI, bis-2,4-dihydroxyphenylpropionyldiaminobutane]
lowest concentration inhibiting formation of shrimp melanosis (potent inhibitor at concentrations as low as) ([3]; FIG. 11, tested 0.001-0.025%): 0.005%

SMILES: Oc1cc(O)c2c(c1)O[C@H](c1ccc(O)c(O)c1)[C@@H](O)C2 [d-catechin]
reaction with 4-methyl-o-quinone formed by PPO in peaches [4]: react with 4-methyl-o-quinone
substrate for PPO [4]: not substrates for PPO

IC50 [1]: 2700 µM
SMILES: Oc1cccc(O)c1 [Resorcinol, 1,3-dihydroxybenzene]
reaction with 4-methyl-o-quinone formed by PPO in peaches [4]: react with 4-methyl-o-quinone
substrate for PPO [4]: not substrates for PPO

IC50 [1]: 1.8 µM
SMILES: CCCc1ccc(O)cc1O [4-n-Propylresorcinol]

IC50 [1]: 0.2 µM
SMILES: Oc1ccc(C2CCCCC2)c(O)c1 [4-Cyclohexylresorcinol]

SMILES: OC[C@H]1O[C@@H](O[C@H]2[C@H](O)[C@@H](O)C(O)O[C@@H]2CO)[C@H](O)[C@@H](O)[C@H]1O (stereo partly shown) [Lactose]
prevention of browning of apples, conclusion [2]: did not prevent browning

SMILES: Oc1cc(O)cc(O)c1 [phloroglucinol]
reaction with 4-methyl-o-quinone formed by PPO in peaches [4]: react with 4-methyl-o-quinone
substrate for PPO [4]: not substrates for PPO

IC50 [1]: 0.5 µM
SMILES: CCCCCCc1ccc(O)cc1O [Formula II, 4-hexylresorcinol]
inhibiting browning of shrimp on a weight basis vs sodium bisulfite ([3]; 0.0001 to 0.005% (FIG. 10)): more effective on a weight basis than sodium bisulfite
inhibiting shrimp melanosis vs sodium bisulfite ([3]; 0.005% by weight vs 1.25% by weight bisulfite (FIG. 10)): almost as effective in inhibiting shrimp melanosis as a solution of 1.25% by weight bisulfite
lowest concentration inhibiting formation of shrimp melanosis (potent inhibitor at concentrations as low as) ([3]; FIG. 10, tested 0.0001-0.005%): 0.0005%
